Literature values in patent publication US20230183218A1, “CONDENSED SUBSTITUTED HYDROPYRROLES AS ANTAGONISTS OF THE MUSCARINIC ACETYLCHOLINE RECEPTOR M4” (Vanderbilt University, priority 2020, published 2023).
Read-outs that look alike come from different tables or passages of the source.

How the values were obtained:
locomotor activity = conditions: M4 knockout mice, but not the other four mAChR subtypes (M1-3,5); cited from earlier work
[1] = tested on: haloperidol-induced catalepsy; conditions: cited from earlier work

**Q.** With CN1[C@@H]2C[C@@H](OC(=O)[C@H](CO)c3ccccc3)C[C@H]1[C@@H]1O[C@@H]12 [scopolamine] as the molecule, how does the locomotor-activating effects (locomotor activity) read?
**A.** The locomotor-activating effects was “dramatically reduced”.

**Q.** And the “reversal of haloperidol-induced catalepsy” value ([1]; M4KO mice)?
**A.** The value was “ineffective in reducing catalepsy”.

**Q.** What about the “reversal of haloperidol-induced catalepsy” value ([1]; WT mice) of the same molecule?
**A.** The value was “completely reversed”.
